Results as given in ChEMBL document CHEMBL3124876, “A perylene derivative regulates HIF-1α and Stat3 signaling pathways” (Bioorg Med Chem, 2014).
Activity calls are given as the source filed them.

Key:
OVCAR-3 = assay: Reduction of total Stat3 level in human OVCAR3 cells at 1 to 20 uM by Western blotting analysis; format: functional, cell-based
[1] = target: T1, Signal transducer and activator of transcription 5A (Homo sapiens) (UniProt P42229); assay: Inhibition of Stat5 phosphorylation in human PANC1 cells at 0.5 to 20 uM by Western blotting analysis; format: cell-based; conditions: PANC-1
T1 sequence (whole entry): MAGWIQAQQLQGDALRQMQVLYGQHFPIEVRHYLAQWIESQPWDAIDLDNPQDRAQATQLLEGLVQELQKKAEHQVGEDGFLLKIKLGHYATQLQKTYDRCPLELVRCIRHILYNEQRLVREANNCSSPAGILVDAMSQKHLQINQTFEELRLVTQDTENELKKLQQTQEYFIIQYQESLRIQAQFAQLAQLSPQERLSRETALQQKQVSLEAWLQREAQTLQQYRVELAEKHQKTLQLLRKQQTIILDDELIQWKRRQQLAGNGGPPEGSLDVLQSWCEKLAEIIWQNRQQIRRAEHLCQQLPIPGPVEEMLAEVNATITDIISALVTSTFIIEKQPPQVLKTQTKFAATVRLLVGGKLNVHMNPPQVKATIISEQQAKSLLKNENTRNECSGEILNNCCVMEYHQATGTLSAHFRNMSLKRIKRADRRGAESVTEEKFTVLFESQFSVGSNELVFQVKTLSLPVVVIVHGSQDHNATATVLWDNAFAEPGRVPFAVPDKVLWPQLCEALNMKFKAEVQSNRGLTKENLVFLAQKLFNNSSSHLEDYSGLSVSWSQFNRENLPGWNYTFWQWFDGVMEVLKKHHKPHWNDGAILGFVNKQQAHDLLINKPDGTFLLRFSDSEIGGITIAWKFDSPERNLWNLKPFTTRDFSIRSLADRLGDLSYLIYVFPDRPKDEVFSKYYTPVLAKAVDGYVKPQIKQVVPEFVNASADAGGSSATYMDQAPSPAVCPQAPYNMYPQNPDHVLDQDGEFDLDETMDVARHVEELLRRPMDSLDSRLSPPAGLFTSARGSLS

[2] = target: Endothelial PAS domain-containing protein 1 (Homo sapiens) (UniProt Q99814); assay: Inhibition of HIF-2 alpha in human PC3 cells after 18 hrs by Western blotting analysis in hypoxia condition; format: cell-based; conditions: PC-3
[3] = target: Signal transducer and activator of transcription 3 (Homo sapiens) (UniProt P40763); assay: Inhibition of Stat3 in human MDA-MB-231 cells assessed as inhibition of Stat3 phosphorylation at 10 uM after 18 hrs by Western blotting analysis; format: cell-based
MDA-MB-231 [4] = assay: Reduction of total Stat3 level in human MDA-MB-231 cells at 0.05 to 20 uM by Western blotting analysis; format: functional, cell-based
MDA-MB-231 [5] = assay: Induction of apoptosis in human MDA-MB-231 cells assessed as reduction in cell viability at 1 to 10 uM by MTT assay; format: functional, cell-based
[6] = target: Hypoxia-inducible factor 1-alpha (Homo sapiens) (UniProt Q16665); assay: Inhibition of HIF-1alpha in human MDA-MB-231 cells at 10 uM after 18 hrs by Western blotting analysis in hypoxia condition; format: cell-based
PANC-1 [7] = assay: Inhibition of ERK phosphorylation in human PANC1 cells at 1 to 20 uM by Western blotting analysis; format: cell-based
[8] = target: Proto-oncogene tyrosine-protein kinase Src (Homo sapiens) (UniProt P12931); assay: Inhibition of Src kinase (unknown origin) assessed as total SRC level at 10 uM after 6 hrs by cell-based Western blotting analysis
[9] = target: Hypoxia-inducible factor 1-alpha (Homo sapiens) (UniProt Q16665); assay: Inhibition of GST-tagged HIF-1 alpha (531 to 826) (unknown origin) expressed in Escherichia coli BL21(DE3) assessed as inhibition of GST-tagged HIF-1 alpha/p300 interaction at 5 ug after overnight incubation by pull down assay in hypoxia condition
[10] = Reduction of HIF-1 alpha mRNA expression in human PANC1 cells at 5 to 10 uM by qRT-PCR analysis; format: functional, cell-based; conditions: PANC-1
MDA-MB-468 = assay: Reduction of total Stat3 level in human MDA-MB-468 cells at 1 to 20 uM by Western blotting analysis; format: functional, cell-based
MDA-MB-231 [11] = assay: Antitumor activity against human MDA-MB-231 cells xenografted in Balb nu/nu mouse assessed as reduction in tumor growth at 2 mg/kg, ip administered every other day for 10 days; format: functional, organism-based; parameters: dose 2 mg/kg
PANC-1 [12] = assay: Reduction of total Stat3 level in human PANC1 cells at 0.5 to 20 uM by Western blotting analysis; format: functional, cell-based
[13] = target: T2, Signal transducer and activator of transcription 1-alpha/beta (Homo sapiens) (UniProt P42224); assay: Inhibition of Stat1 phosphorylation in human MDA-MB-231 cells at 0.05 to 10 uM by Western blotting analysis; format: cell-based
T2 sequence (whole entry): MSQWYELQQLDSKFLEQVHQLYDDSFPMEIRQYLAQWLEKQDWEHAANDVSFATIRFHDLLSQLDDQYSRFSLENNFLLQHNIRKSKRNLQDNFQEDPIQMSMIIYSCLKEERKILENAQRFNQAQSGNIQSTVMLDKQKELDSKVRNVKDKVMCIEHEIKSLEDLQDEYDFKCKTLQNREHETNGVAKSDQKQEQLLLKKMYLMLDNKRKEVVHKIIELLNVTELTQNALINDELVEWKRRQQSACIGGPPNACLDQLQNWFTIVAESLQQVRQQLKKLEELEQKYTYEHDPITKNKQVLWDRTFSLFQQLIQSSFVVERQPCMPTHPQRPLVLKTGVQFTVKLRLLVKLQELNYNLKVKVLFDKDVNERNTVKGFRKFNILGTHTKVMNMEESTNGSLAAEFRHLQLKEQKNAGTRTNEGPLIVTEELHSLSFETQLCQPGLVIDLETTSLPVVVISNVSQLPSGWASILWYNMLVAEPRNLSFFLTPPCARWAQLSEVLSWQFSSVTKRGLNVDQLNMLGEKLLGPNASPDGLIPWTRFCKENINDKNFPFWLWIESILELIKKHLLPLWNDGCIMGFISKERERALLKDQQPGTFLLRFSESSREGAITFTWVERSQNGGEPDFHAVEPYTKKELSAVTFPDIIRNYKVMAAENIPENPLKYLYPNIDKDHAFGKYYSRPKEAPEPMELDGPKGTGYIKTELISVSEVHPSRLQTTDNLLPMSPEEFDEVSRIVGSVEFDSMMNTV

[14] = target: Signal transducer and activator of transcription 3 (Homo sapiens) (UniProt P40763); conditions: PANC-1, 1 to 20 uM
Description: Inhibition of Stat3 phosphorylation in human PANC1 cells assessed as inhibition of Bcl2 expression at 1 to 20 uM by Western blotting analysis in normoxia condition

MCF7 [15] = assay: Induction of apoptosis in human MCF7 cells assessed as reduction in cell viability at 8 uM after 12 to 48 hrs by MTT assay; format: functional, cell-based
MCF7 [16] = assay: Induction of apoptosis in human MCF7 cells assessed as reduction in cell viability at 10 uM after 12 to 48 hrs by MTT assay; format: functional, cell-based
[17] = target: RAC-alpha serine/threonine-protein kinase (Homo sapiens) (UniProt P31749); assay: Inhibition of AKT phosphorylation in human PANC1 cells at 1 to 20 uM by Western blotting analysis; format: cell-based; conditions: PANC-1
RAC-alpha serine/threonine-protein kinase (Homo sapiens), sequence (P31749 whole entry): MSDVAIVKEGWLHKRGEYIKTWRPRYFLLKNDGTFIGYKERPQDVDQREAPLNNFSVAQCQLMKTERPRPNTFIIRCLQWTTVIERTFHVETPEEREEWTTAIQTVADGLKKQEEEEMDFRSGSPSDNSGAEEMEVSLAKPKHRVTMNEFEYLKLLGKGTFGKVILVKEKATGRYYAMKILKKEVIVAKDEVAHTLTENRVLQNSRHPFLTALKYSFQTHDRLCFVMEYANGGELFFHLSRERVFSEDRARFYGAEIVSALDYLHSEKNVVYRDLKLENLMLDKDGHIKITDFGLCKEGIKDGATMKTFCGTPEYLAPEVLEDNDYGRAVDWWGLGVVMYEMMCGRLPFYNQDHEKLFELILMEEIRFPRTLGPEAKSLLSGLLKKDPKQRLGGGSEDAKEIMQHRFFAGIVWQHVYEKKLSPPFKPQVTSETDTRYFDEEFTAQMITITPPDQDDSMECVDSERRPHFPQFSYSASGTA

Signal transducer and activator of transcription 3 (Homo sapiens), sequence (P40763 whole entry): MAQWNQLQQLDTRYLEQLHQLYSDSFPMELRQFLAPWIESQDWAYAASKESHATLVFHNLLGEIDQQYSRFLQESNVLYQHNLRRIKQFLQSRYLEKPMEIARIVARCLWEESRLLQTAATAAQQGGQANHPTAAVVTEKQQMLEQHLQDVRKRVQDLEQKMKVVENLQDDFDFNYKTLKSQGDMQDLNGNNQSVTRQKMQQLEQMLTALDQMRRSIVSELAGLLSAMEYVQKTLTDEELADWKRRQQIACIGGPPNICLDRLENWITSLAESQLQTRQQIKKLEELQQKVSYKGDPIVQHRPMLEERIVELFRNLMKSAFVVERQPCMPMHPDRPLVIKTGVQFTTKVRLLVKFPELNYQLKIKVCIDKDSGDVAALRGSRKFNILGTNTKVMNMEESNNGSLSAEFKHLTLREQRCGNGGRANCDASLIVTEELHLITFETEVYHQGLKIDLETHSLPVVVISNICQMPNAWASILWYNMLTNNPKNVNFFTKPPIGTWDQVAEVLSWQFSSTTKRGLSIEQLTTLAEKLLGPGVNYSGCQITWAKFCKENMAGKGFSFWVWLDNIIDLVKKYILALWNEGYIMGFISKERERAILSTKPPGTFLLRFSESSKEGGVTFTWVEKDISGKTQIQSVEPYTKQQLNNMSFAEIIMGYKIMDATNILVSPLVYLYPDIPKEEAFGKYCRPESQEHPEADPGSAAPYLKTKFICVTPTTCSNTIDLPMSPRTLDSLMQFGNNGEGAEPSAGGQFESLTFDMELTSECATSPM
Hypoxia-inducible factor 1-alpha (Homo sapiens), sequence (Q16665 whole entry, looked up): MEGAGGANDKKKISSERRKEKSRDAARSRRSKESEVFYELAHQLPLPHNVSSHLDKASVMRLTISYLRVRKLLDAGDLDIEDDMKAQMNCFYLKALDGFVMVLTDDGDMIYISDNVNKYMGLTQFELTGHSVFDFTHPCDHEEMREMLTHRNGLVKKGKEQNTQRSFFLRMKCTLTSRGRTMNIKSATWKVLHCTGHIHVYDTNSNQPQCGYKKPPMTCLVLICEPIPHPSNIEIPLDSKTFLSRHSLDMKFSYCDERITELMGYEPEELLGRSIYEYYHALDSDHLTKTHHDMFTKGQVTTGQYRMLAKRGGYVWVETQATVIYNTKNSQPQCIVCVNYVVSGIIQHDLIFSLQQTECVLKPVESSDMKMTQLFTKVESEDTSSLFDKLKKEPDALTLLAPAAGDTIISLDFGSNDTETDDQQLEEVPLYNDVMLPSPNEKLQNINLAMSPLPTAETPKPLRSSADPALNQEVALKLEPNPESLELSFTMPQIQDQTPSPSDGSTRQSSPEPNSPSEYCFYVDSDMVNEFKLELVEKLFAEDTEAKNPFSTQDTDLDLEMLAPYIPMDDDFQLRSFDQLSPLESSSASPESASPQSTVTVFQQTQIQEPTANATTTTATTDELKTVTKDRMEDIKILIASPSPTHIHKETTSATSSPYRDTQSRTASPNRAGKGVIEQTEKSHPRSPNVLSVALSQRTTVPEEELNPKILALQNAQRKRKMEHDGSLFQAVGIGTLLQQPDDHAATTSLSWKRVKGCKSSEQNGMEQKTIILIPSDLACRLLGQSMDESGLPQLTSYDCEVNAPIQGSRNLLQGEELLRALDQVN
Endothelial PAS domain-containing protein 1 (Homo sapiens), sequence (Q99814 whole entry, the tested form may be a part): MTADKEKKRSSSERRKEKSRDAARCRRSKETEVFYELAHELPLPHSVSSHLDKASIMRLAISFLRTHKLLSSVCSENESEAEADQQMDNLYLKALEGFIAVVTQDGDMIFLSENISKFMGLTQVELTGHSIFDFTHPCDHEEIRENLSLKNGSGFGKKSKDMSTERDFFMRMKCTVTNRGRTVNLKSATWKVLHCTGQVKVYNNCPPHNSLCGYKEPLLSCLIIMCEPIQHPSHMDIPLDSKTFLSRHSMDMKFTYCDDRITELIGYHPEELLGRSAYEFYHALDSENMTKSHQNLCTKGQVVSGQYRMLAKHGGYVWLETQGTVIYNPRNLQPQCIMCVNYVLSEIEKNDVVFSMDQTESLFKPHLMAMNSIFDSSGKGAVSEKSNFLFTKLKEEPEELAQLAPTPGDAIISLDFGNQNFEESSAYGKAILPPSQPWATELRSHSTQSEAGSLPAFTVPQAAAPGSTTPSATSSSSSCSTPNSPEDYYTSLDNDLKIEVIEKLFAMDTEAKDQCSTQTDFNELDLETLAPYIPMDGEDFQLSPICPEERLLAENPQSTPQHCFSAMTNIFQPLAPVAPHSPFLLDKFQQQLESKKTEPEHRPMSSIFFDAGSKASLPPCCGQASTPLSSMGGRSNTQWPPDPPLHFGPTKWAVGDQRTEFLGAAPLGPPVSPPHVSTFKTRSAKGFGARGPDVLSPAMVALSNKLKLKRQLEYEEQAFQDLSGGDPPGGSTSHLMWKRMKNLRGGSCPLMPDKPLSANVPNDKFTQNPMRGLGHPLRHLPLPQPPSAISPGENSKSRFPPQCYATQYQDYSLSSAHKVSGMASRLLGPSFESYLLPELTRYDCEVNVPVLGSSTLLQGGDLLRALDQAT
Proto-oncogene tyrosine-protein kinase Src (Homo sapiens), sequence (P12931 2-536 limits assumed): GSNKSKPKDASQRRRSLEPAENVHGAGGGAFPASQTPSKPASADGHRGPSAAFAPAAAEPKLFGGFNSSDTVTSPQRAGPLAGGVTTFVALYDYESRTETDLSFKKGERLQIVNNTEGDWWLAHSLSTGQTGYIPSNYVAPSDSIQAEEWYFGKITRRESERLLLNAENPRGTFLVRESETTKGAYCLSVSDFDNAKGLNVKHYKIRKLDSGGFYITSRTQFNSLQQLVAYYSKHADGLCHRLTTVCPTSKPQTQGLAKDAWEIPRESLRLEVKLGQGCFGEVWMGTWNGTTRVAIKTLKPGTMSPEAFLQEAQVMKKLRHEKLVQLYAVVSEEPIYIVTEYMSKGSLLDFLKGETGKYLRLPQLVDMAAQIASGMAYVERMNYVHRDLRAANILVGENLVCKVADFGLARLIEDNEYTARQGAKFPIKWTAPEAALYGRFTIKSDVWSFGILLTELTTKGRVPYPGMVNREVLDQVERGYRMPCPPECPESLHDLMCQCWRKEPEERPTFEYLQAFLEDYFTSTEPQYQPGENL

CN(C)CCCN1C(=O)c2ccc3c4ccc5c6c(ccc(c7ccc(c2c37)C1=O)c64)C(=O)N(CCCN(C)C)C5=O
active: Activity (OVCAR-3) | inhibition [2] | inhibition [3] | Activity (MDA-MB-231 [4]) | Activity (MDA-MB-231 [5]) | inhibition [6] | inhibition [9] | Activity (MDA-MB-468) | Activity (MDA-MB-231 [11]) | Activity (PANC-1 [12]) | inhibition [14] | Activity (MCF7 [15]) | Activity (MCF7 [16])
inactive: inhibition [1] | inhibition (PANC-1 [7]) | inhibition [8] | Activity [10] | inhibition [13] | inhibition [17]
